# Laboratory results published in EP0793496B1, “USE OF HALOGENATED beta-[…] MODEL […] PRODUCE NEURODEGENERATIVE DISORDERS” (priority 1994, dated 1996).
# Tests used:
# [1] = test system: Substantia nigra pars compacta; test: Histology of the substantia nigra pars compacta after unilateral intranigral injection (neuron count, tyrosine hydroxylase staining); type: in vivo, Ratte
# Source text: Die ersten Untersuchungen von drei mit TaClo behandelten Ratten mit quantitativer Auswertung der Substantia nigra pars compacta zeigen, daß TaClo, in einer Konzentration von 0.03 µmol einseitig in die Substantia nigra injiziert, bereits nach einer Woche zu einer eindeutigen Reduktion der Neuronenzahl von 12% auf der läsionierten Seite führt. 6-OHDA, in einer annähernd doppelt so hohen Konzentration von 0.05 µmol injiziert, bewirkt einen 51% Abfall der Neuronenzahl.
# Nach Anfärbung der Tyrosinhydroxylase mittels Antikörpern zur Darstellung dopaminerger Neurone zeichnen sich pathologische Veränderungen ab, die nach Behandlung mit TaClo auf der läsionierten Seite zu 3 - 6% nekrotischem Gewebsanteil am Gesamtvolumen führen. Bei 6-OHDA beträgt dieser Anteil 25%.
# [2] = test system: Dopaminstoffwechsel im Striatum; test: In vivo differential pulse voltammetry of the DOPAC signal in the striatum after unilateral intranigral injection; set-up: species or system Ratte; conditions: for DOPAC-Signal im ipsilateralen Striatum: 10 µg in 2 µl intranigral, before L-DOPA
# Source text: Die 1-Trichlormethyl-β-carboline TaClo und N-Me-TaClo wurden im Vergleich zu den bekannten Neurotoxinen MPTP und MPP^+, wie folgt, auf ihre neurotoxische Wirkung überprüft. Die zu untersuchenden Substanzen (TaClo, N-Me-TaClo, DDH-TaFlu, TaBro, MPTP und MPP^+) wurden unter Narkose mit einer Mikroglaskapillare stereotaktisch nach Koordinaten (A: 4,0 mm; L: 1,9 mm; V: 2,0 mm; ab Interaurallinie) von Paxinos und Watson (1982) unilateral in die rechte Substantia nigra pars compacta der Ratte (Han-Wistar, Zentralinstitut für Versuchstierzucht, Hannover, 250-300 g) injiziert. Appliziert wurde ein Volumen von 2 µl über einen Zeitraum von 15 Minuten.
# Im Striatum, dem Projektionsareal der nigralen dopaminergen Neurone, wurde 1 und/oder 3 Wochen nach Applikation der Substanzen der Transmitterstoffwechsel untersucht. Die Untersuchung des Dopaminstoffwechsels wurde dabei in beiden Striata, dem linken Striatum, Projektionsgebiet der unbehandelten linken Substantia nigra, und dem rechten Striatum, Projektionsgebiet der behandelten rechten Substantia nigra, durchgeführt. Die Messung des Dopaminstoffwechsels erfolgte mit Hilfe der in vivo differentiellen Pulsvoltametrie (DPV) mit Mikrokohlefaserelektroden, wie sie 1980 von Gonon beschrieben wurde (Gonon et al., 1980). Dabei werden die extrazellulären Spiegel an 3,4-Dihydroxyphenylessigsäure (DOPAC) erfaßt, einem Metaboliten des Transmitters Dopamin. Die Messung wurde am narkotisierten Tier durchgeführt. Die stereotaktische Implantation von 2 Elektroden (rechtes und linkes Striatum) erfolgte nach Koordinaten (A: 8,5 mm; L: ± 3,5 mm; V: 4,5 mm; ab Interaurallinie) von Paxinos und Watson (Paxinos und Watson, 1982). Die voltametrischen Messungen wurden im Abstand von 8 Minuten durchgeführt. 40 Minuten nach Beginn der Messungen applizierte man den Tieren L-DOPA (100 mg/kg i.p.), um die Restitutionsfähigkeit des Dopaminstoffwechsels durch dieses Anti-Parkinsonmittel zu überprüfen.
# [3] = test system: dopaminerge Primärzellen aus dem Mesencephalon; test: Dopamine content / dopamine release in the cell cultures (HPLC with electrochemical detection); type: cell-based; conditions: for Dopamingehalt: 24 h, mean ± S.D.
# Source text: (§1) In der Zellkultur zeigen 1-Trichlormethyl-β-carboline neurotoxische Eigenschaften, die mit denen von MPP^+ bzw. MPTP, den bisher bestuntersuchten dopaminergen Neurotoxinen, vergleichbar sind. Das neurotoxische Potential der chlorierten β-Carboline wurde daher mit Methoden untersucht, die sich beim Studium der Wirkung von MPTP und seiner Analoga bewährt haben (Koutsilieri et al., 1993; Michel et al., 1990; Sanchez-Ramos et al., 1988) Deutliche degenerative Veränderungen sind in vitro im Akutversuch bei einer Einwirkungszeit von 24 Stunden ab einer Konzentration von 10 - 100 µM feststellbar. Die Substanzen führen zum Zelltod dopaminerger Primärzellen aus dem Mesencephalon - Zellen, die den bei Morbus Parkinson betroffenen Neuronen des Menschen entsprechen. Dem Zelltod dieser immunhistochemisch eindeutig charakterisierten Neuronen (Antikörper auf Tyrosinhydroxylase) gehen morphologische Veränderungen der Zellen voraus. Dabei nimmt die Gesamt-Zelloberfläche ab, die Dendriten und Axone, (zuerst die sekundären und dann die primären Zellfortsätze) gehen verloren. Diese histologischen Befunde (vgl. auch Tabelle 2) wurden durch bildgebende Verfahren erhärtet und quantifiziert. Die 1-Trichlormethyl-β-carboline zeigen auch toxische Eigenschaften in Gliazellkulturen, wie durch histologische Befunde nachgewiesen werden konnte. Für die Gruppe der 1-Trichlormethyl-β-carboline läßt sich eine Beeinflussung der synaptischen Transmitterkonzentration erwarten, wie an Versuchen mit der Grundstruktur TaClo nachgewiesen werden konnte, deren Zusatz konzentrationsabhängig (IC50 50 µM) zu einer Freisetzung von Dopamin aus den Zellkulturen führt. Dies wurde durch Dopaminbestimmung in den Kulturen mit Hilfe der Hochdruckflüssigkeitschromatographie und elektrochemischer Detektion nachgewiesen. […]
# Dopaminaufnahmestellen = Dopaminaufnahmestellen (Mus musculus, UniProt Q61327); test: 3H-dopamine uptake in cell cultures; type: cell-based; conditions: 24 h, mean ± S.D.
# Dopaminaufnahmestellen, sequence (Q61327 whole entry): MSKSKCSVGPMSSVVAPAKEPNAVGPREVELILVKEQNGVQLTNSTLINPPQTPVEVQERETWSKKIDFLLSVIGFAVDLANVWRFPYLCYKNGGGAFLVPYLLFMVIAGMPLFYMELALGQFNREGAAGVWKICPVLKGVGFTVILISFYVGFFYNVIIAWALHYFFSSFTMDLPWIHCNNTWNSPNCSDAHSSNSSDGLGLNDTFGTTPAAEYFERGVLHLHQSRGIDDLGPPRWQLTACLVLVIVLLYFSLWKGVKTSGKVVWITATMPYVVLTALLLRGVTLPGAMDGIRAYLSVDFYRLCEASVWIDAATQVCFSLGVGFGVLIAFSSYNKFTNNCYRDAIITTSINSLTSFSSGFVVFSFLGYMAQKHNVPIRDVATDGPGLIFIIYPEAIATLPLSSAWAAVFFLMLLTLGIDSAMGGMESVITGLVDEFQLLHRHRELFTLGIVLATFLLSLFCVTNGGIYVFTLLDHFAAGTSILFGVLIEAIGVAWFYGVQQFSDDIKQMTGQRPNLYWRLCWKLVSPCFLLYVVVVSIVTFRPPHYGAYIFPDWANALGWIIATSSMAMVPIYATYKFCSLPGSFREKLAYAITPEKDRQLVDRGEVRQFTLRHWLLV
# Source text: as §1
# dopaminerge Rezeptoren = test: Apomorphine test (Ungerstedt): locomotor activity after subchronic TaClo i.p.; type: in vivo, Ratte; conditions: TaClo (Hydrochlorid) 0.2 mg/kg i.p. for four weeks, then apomorphine s.c.
# Method: Eine durch Neurotoxine verursachte Denervation des postsynaptischen Rezeptors im dopaminergen System führt zu einer Rezeptorüberempfindlichkeit. Dadurch wird die Reaktion gegenüber verabreichten DA-Agonisten (z.B. Apomorphin) größer. Zur Überprüfung einer z.B. TaClo-bedingten Überempfindlichkeit dopaminerger Rezeptoren wird der Apomorphin-Test nach Ungerstedt (Ungerstedt et al., 1971) benutzt. Dieser läßt nach s.c. Injektion von 0.4 oder 2 mg/kg Apomorphin bei einseitiger Läsion des dopaminergen Systems im Versuchstier in den für die Entstehung des Morbus Parkinson ausschlaggebenden Basalganglien contralaterale Drehungen erkennen und nach mehr oder weniger beidseitiger Schädigung dopaminerger Strukturen bei geringem Schädigungsgrad vermehrte, bei hohem Schädigungsgrad verminderte Lokomotion im Vergleich zum Kontrollkollektiv sichtbar werden.
# Die Verhaltensbeobachtungen fanden während und nach einstündiger Adaption in Beobachtungskäfigen statt. Die Aufzeichnung einzelner spezifischer Parameter wie gelaufene Wegstrecke [DT], Zeit ambulatorischer Bewegungen [AT], Anzahl stereotyper Bewegungen [BMS] und Zeiten stereotyper Bewegungen erfolgte automatisch. […]
# [4] = test system: Tyrosinhydroxylase-immunoreaktive Neuronen (TH-IR); test: Primary neuron cell culture: number and morphology of TH-IR neurons after 24 h; type: cell-based; conditions: for Zahl der TH-IR Zellen/ Kulturschale: added on culture day 9, mean ± S.D.
# Source text: In der Zellkultur zeigen 1-Trichlormethyl-β-carboline neurotoxische Eigenschaften, die mit denen von MPP^+ bzw. MPTP, den bisher bestuntersuchten dopaminergen Neurotoxinen, vergleichbar sind. Das neurotoxische Potential der chlorierten β-Carboline wurde daher mit Methoden untersucht, die sich beim Studium der Wirkung von MPTP und seiner Analoga bewährt haben (Koutsilieri et al., 1993; Michel et al., 1990; Sanchez-Ramos et al., 1988) Deutliche degenerative Veränderungen sind in vitro im Akutversuch bei einer Einwirkungszeit von 24 Stunden ab einer Konzentration von 10 - 100 µM feststellbar. Die Substanzen führen zum Zelltod dopaminerger Primärzellen aus dem Mesencephalon - Zellen, die den bei Morbus Parkinson betroffenen Neuronen des Menschen entsprechen. Dem Zelltod dieser immunhistochemisch eindeutig charakterisierten Neuronen (Antikörper auf Tyrosinhydroxylase) gehen morphologische Veränderungen der Zellen voraus. Dabei nimmt die Gesamt-Zelloberfläche ab, die Dendriten und Axone, (zuerst die sekundären und dann die primären Zellfortsätze) gehen verloren. Diese histologischen Befunde (vgl. auch Tabelle 2) wurden durch bildgebende Verfahren erhärtet und quantifiziert. Die 1-Trichlormethyl-β-carboline zeigen auch toxische Eigenschaften in Gliazellkulturen, wie durch histologische Befunde nachgewiesen werden konnte. Für die Gruppe der 1-Trichlormethyl-β-carboline läßt sich eine Beeinflussung der synaptischen Transmitterkonzentration erwarten, wie an Versuchen mit der Grundstruktur TaClo nachgewiesen werden konnte, deren Zusatz konzentrationsabhängig (IC50 50 µM) zu einer Freisetzung von Dopamin aus den Zellkulturen führt. Dies wurde durch Dopaminbestimmung in den Kulturen mit Hilfe der Hochdruckflüssigkeitschromatographie und elektrochemischer Detektion nachgewiesen. Der Einsatz von ^3H-markiertem Dopamin für Aufnahmestudien weist eine Interaktion der 1-Trichlormethyl-β-carboline mit den Dopaminaufnahmestellen in Zellkulturen nach, die eine wichtige Voraussetzung für die Aufnahme dieser Substanzen in das dopaminerge Neuron und die Entfaltung der neurotoxischen Wirkung darstellen (IC50 für TaClo 100 µM) (vgl. Tabelle 2).
smiles,measurement,setting,value
ClC(Cl)(Cl)C1NCCc2c1[nH]c1ccccc21 (racemic) [TaClo],Reduktion der Neuronenzahl auf der läsionierten Seite,"[1]; 0.03 µmol injected unilaterally into the substantia nigra, after one week, three rats",12%
same,nekrotischer Gewebsanteil am Gesamtvolumen auf der läsionierten Seite,"[1]; TaClo treatment (0.03 µmol), tyrosine hydroxylase antibody staining",3 - 6%
same,DOPAC-Signal im ipsilateralen Striatum,[2]; 1 week,signifikant geringere DOPAC-Konzentration
same,DOPAC-Signal im ipsilateralen Striatum,[2]; 3 weeks,signifikant geringere DOPAC-Konzentration
same,Dopamingehalt,[3]; TaClo 10 µM,0.7 ± 0.2 pmoles/ Kulturschale
same,Dopamingehalt,[3]; TaClo 25 µM,0.6 ± 0.2 pmoles/ Kulturschale
same,IC50,"[3]; concentration dependent, dopamine determined by HPLC with electrochemical detection, read-out: IC50 Freisetzung von Dopamin aus den Zellkulturen",50 µM
same,^3H-DA uptake,Dopaminaufnahmestellen; TaClo 10 µM,0.05 ± 0.01 pmoles/ Kulturschale
same,^3H-DA uptake,Dopaminaufnahmestellen; TaClo 25 µM,0.05 ± 0.01 pmoles/ Kulturschale
same,^3H-DA uptake,Dopaminaufnahmestellen; TaClo 50 µM,0.05 ± 0.01 pmoles/ Kulturschale
same,lokomotorische Aktivität nach Apomorphin,dopaminerge Rezeptoren,stieg nach der kleineren Dosierung signifikant an
same,Zahl der TH-IR Zellen/ Kulturschale,[4]; TaClo 10 µM,172 ± 69
same,Länge der Fortsätze,"[4]; TaClo 10 µM, mean ± S.D.",80 ± 20 µm
same,Zahl der primären Fortsätze,"[4]; TaClo 10 µM, mean ± S.D.",3.1 ± 1.1
same,Zahl der sekundären Fortsätze,"[4]; TaClo 10 µM, mean ± S.D.",2.6 ± 1.6
same,Zellfläche,"[4]; TaClo 10 µM, mean ± S.D.",180 ± 49 µm^2
same,Zahl der TH-IR Zellen/ Kulturschale,[4]; TaClo 25 µM,164 ± 67
same,Länge der Fortsätze,"[4]; TaClo 25 µM, mean ± S.D.",70 ± 20 µm
same,Zahl der primären Fortsätze,"[4]; TaClo 25 µM, mean ± S.D.",2.9 ± 1.0
same,Zellfläche,"[4]; TaClo 25 µM, mean ± S.D.",192 ± 47 µm^2
same,Zahl der TH-IR Zellen/ Kulturschale,[4]; TaClo 50 µM,128 ± 47
same,Länge der Fortsätze,"[4]; TaClo 50 µM, mean ± S.D.",70 ± 30 µm
same,Zahl der primären Fortsätze,"[4]; TaClo 50 µM, mean ± S.D.",2.6 ± 1.3
same,Zellfläche,"[4]; TaClo 50 µM, mean ± S.D.",159 ± 18 µm^2
same,Zellfläche,"[4]; TaClo 100 µM, mean ± S.D.",185 ± 43 µm^2
"NCCc1cc(O)c(O)cc1O [6-OHDA, 6-hydroxydopamine, reference compound]",Abfall der Neuronenzahl,[1]; 0.05 µmol injected,51%
same,nekrotischer Gewebsanteil am Gesamtvolumen,"[1]; 6-OHDA (0.05 µmol), tyrosine hydroxylase antibody staining",25%
"FC(F)(F)C1=NCCc2c1[nH]c1ccccc21 [DDH-TaFlu, 1-Trifluormethyl-3,4-didehydro-β-carbolin]",DOPAC-Signal im ipsilateralen Striatum,[2]; 1 week,stärkere Reduktion des DOPAC-Signals
"C[n+]1ccc(-c2ccccc2)cc1 [MPP^+, 1-Methyl-4-Phenylpyridinium, reference compound]",DOPAC-Signal auf der injizierten Seite,"[2]; MPP^+ 30 µg in 2 µl intranigral, 1 and 3 weeks",hochsignifikante (p < 0.01) langanhaltende Verringerung des DOPAC-Signals
same,Restitutionsfähigkeit des dopaminergen Systems durch DOPA,"[2]; MPP^+ 30 µg in 2 µl intranigral, 1 week, L-DOPA 100 mg/kg i.p.",mangelnde Restitutionsfähigkeit
"CN1CC=C(c2ccccc2)CC1 [MPTP, 1-Methyl-4-phenyl-1,2,3,6-tetrahydropyridin, reference compound]",Kompensation des Neuronenverlusts durch L-DOPA,"[2]; MPTP 174 µg in 2 µl intranigral, 1 and 3 weeks, L-DOPA 100 mg/kg i.p.",kompensieren konnte
same,DOPAC-Wert auf der läsionierten Seite vor L-DOPA,"[2]; MPTP 174 µg in 2 µl intranigral, 1 week, intact side about 20%, p < 0.05",~6%
same,Erniedrigung des DOPAC-Signals,"[2]; MPTP 174 µg in 2 µl intranigral, 3 weeks",statistisch nicht mehr signifikant
CN1CCc2c([nH]c3ccccc23)C1C(Cl)(Cl)Cl (centres unmarked) [N-Me-TaClo],DOPAC-Signal im ipsilateralen Striatum,[2]; 1 week,signifikant
same,DOPAC-Signal im ipsilateralen Striatum,[2]; 3 weeks,signifikant
